Results reported in patent publication US9062124B2, “GIP-based mixed agonists for treatment of metabolic disorders and obesity” (priority 2008, dated 2015).
Where a SMILES comes first, the peptide text is derived from it. Bridges are numbered along the chain shown (N, C = ends). Where no end group is shown, it is not given here. [ ]: non-standard residue; d: D form. PhLac = O=C(O)[C@@H](O)Cc1ccccc1; Dab = NCC[C@H](N)C(=O)O; Aib = CC(C)(N)C(=O)O

Tests used:
glucagon receptor = biological target: T1, glucagon receptor (Homo sapiens, UniProt P47871); assay: cAMP synthesis functional assay (firefly luciferase reporter in HEK293 cells), glucagon receptor; assay type: cell-based; settings: for % activity*: glucagon receptor; for EC50: Glucagon Receptor EC50, nM; for EC50 / Glucagon Receptor relative activity: Table 1; for Glucagon Receptor relative activity: relative to the native hormone of the indicated receptor
T1 construct: expressed in transfected cells; host or cells: HEK293

GLP-1 receptor = biological target: T2, GLP-1 receptor (Homo sapiens, UniProt P43220); assay: cAMP synthesis functional assay (firefly luciferase reporter in HEK293 cells), GLP-1 receptor; assay type: cell-based; settings: Table 1; for GLP-1 Receptor relative activity: relative to the native hormone of the indicated receptor; for EC50: GLP-1 Receptor EC50, nM
T2 construct: expressed in transfected cells; host or cells: HEK293
T2 sequence (P43220 24-463, species assumed): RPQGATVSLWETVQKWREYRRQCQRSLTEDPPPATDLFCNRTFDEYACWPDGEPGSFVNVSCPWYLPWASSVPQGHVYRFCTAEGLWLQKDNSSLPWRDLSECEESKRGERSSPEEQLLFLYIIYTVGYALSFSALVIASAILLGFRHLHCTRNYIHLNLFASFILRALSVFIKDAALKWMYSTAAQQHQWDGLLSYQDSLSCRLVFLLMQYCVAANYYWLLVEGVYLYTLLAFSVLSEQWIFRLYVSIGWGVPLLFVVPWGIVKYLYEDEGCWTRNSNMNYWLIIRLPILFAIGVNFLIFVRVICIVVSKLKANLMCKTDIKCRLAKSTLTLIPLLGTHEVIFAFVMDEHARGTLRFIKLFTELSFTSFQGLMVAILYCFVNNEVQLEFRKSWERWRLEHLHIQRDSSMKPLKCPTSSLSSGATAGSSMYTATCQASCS

T1 sequence (P47871 26-477): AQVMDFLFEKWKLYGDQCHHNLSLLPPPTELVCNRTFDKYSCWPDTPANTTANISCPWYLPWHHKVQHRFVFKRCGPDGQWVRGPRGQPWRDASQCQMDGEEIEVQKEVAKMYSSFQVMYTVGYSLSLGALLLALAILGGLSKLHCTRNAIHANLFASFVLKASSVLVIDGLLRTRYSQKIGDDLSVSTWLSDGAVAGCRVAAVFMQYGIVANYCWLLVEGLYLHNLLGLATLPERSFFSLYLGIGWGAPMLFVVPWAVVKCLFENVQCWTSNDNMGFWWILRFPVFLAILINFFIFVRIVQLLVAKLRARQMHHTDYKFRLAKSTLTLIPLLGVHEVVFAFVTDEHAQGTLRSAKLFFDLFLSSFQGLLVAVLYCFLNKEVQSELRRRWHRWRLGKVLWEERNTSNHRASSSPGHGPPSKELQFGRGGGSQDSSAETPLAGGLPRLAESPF

Compound	GLP-1 Receptor relative activity (GLP-1 receptor) [%]	Glucagon Receptor relative activity (glucagon receptor) [%]	other results
CNC(=O)CC[C@H](NC(=O)[C@H](CO)NC(=O)[C@@H](N)Cc1c[nH]cn1)C(=O)NCC(=O)N[C@H](C(=O)N[C@@H](Cc1ccccc1)C(=O)N[C@H](C(=O)N[C@@H](CO)C(=O)N[C@@H](CC(=O)O)C(=O)N[C@@H](Cc1ccc(O)cc1)C(=O)N[C@@H](CO)C(=O)N[C@@H](CCCCN)C(=O)N[C@@H](Cc1ccc(O)cc1)C(=O)N[C@@H](CC(C)C)C(=O)N[C@@H](CC(=O)O)C(=O)NC(C)(C)C(=O)N[C@@H](CCCNC(=N)N)C(=O)N[C@@H](CCCNC(=N)N)C(=O)N[C@@H](C)C(=O)N[C@@H](C)C(=O)N[C@@H](CC(=O)O)C(=O)N[C@@H](Cc1ccccc1)C(=O)N[C@H](C(=O)N[C@@H](C)C(=O)N[C@@H](Cc1c[nH]c2ccccc12)C(=O)N[C@@H](CC(C)C)C(=O)N[C@@H](CCSC)C(=O)N[C@@H](CC(=O)O)C(=O)N[C@@H](CCC(=O)O)C(=O)O)C(C)C)[C@@H](C)O)[C@@H](C)O [SEQ ID NO: 251]			% activity* (glucagon receptor; Table 6): 55%
CC(=O)NCC[C@H](NC(=O)[C@H](CO)NC(=O)[C@@H](N)Cc1c[nH]cn1)C(=O)NCC(=O)N[C@H](C(=O)N[C@@H](Cc1ccccc1)C(=O)N[C@H](C(=O)N[C@@H](CO)C(=O)N[C@@H](CC(=O)O)C(=O)N[C@@H](Cc1ccc(O)cc1)C(=O)N[C@@H](CO)C(=O)N[C@@H](CCCCN)C(=O)N[C@@H](Cc1ccc(O)cc1)C(=O)N[C@@H](CC(C)C)C(=O)N[C@@H](CC(=O)O)C(=O)NC(C)(C)C(=O)N[C@@H](CCCNC(=N)N)C(=O)N[C@@H](CCCNC(=N)N)C(=O)N[C@@H](C)C(=O)N[C@@H](C)C(=O)N[C@@H](CC(=O)O)C(=O)N[C@@H](Cc1ccccc1)C(=O)N[C@H](C(=O)N[C@@H](C)C(=O)N[C@@H](Cc1c[nH]c2ccccc12)C(=O)N[C@@H](CC(C)C)C(=O)N[C@@H](CC(C)C)C(=O)N[C@@H](CC(=O)O)C(=O)N[C@H](C(=O)NCC(=O)N1CCC[C@H]1C(=O)N[C@@H](CO)C(=O)N[C@@H](CO)C(=O)NCC(=O)N[C@@H](C)C(=O)N1CCC[C@H]1C(=O)N1CCC[C@H]1C(=O)N1CCC[C@H]1C(=O)N[C@@H](CO)C(N)=O)[C@@H](C)O)C(C)C)[C@@H](C)O)[C@@H](C)O [SEQ ID NO: 254] (H-HS[Dab](Ac)GTFTSDYSKYLD[Aib]RRAADFVAWLLDTGPSSGAPPPS-NH2; N-terminus assumed)			% activity* (glucagon receptor; Table 7): 113%
CC(=O)NCC[C@H](NC(=O)[C@H](CO)NC(=O)[C@@H](N)Cc1c[nH]cn1)C(=O)NCC(=O)N[C@H](C(=O)N[C@@H](Cc1ccccc1)C(=O)N[C@H](C(=O)N[C@@H](CO)C(=O)N[C@@H](CC(=O)O)C(=O)N[C@@H](Cc1ccc(O)cc1)C(=O)N[C@@H](CO)C(=O)N[C@@H](CCCCN)C(=O)N[C@@H](Cc1ccc(O)cc1)C(=O)N[C@@H](CC(C)C)C(=O)N[C@@H](CC(=O)O)C(=O)NC(C)(C)C(=O)N[C@@H](CCCNC(=N)N)C(=O)N[C@@H](CCCNC(=N)N)C(=O)N[C@@H](C)C(=O)N[C@H](C(=O)N[C@@H](CC(=O)O)C(=O)N[C@@H](Cc1ccccc1)C(=O)N[C@H](C(=O)N[C@H](C(=O)N[C@@H](Cc1c[nH]c2ccccc12)C(=O)N[C@@H](CC(C)C)C(=O)N[C@@H](CC(C)C)C(=O)N[C@@H](CC(=O)O)C(=O)N[C@@H](CCC(=O)O)C(=O)O)[C@@H](C)O)C(C)C)[C@@H](C)O)[C@@H](C)O)[C@@H](C)O [SEQ ID NO: 256] (H-HS[Dab](Ac)GTFTSDYSKYLD[Aib]RRATDFVTWLLDE-OH; N-terminus and C-terminus assumed)			% activity* (glucagon receptor; Table 7): 46%
CC[C@H](C)[C@H](NC(=O)[C@H](CO)NC(=O)[C@H](Cc1ccc(O)cc1)NC(=O)[C@H](CC(=O)O)NC(=O)[C@H](CO)NC(=O)[C@@H](NC(=O)[C@H](Cc1ccccc1)NC(=O)[C@@H](NC(=O)CNC(=O)[C@H](CCC(N)=O)NC(=O)C(C)(C)N)[C@@H](C)O)[C@@H](C)O)C(=O)N[C@@H](Cc1ccc(O)cc1)C(=O)N[C@@H](CC(C)C)C(=O)N[C@@H](CC(=O)O)C(=O)N[C@@H](CCC(=O)O)C(=O)N[C@@H](CCC(=O)O)C(=O)N[C@@H](C)C(=O)N[C@H](C(=O)N[C@@H](CCCNC(=N)N)C(=O)N[C@@H](CC(C)C)C(=O)N[C@@H](Cc1ccccc1)C(=O)N[C@H](C(=O)N[C@@H](CC(N)=O)C(=O)N[C@@H](Cc1c[nH]c2ccccc12)C(=O)N[C@@H](CC(C)C)C(=O)N[C@@H](CC(C)C)C(=O)N[C@@H](C)C(=O)NCC(=O)NCC(=O)N1CCC[C@H]1C(=O)N[C@@H](CO)C(=O)N[C@@H](CO)C(=O)NCC(=O)N[C@@H](C)C(=O)N1CCC[C@H]1C(=O)N1CCC[C@H]1C(=O)N1CCC[C@H]1C(=O)N[C@@H](CO)C(N)=O)C(C)C)C(C)C [mt-194] (H-[Aib]QGTFTSDYSIYLDEEAVRLFVNWLLAGGPSSGAPPPS-NH2; N-terminus assumed)	0.63		
FTSDYSIYLDEQAAKEFVNWLLAGGPSSGAPPPS-NH2 [mt-192]	0.06		

More lines, main results first:

GLP-1 Receptor relative activity (GLP-1 receptor) [%]	Glucagon Receptor relative activity (glucagon receptor) [%]	Compound	other results
12.90	6.03	CC[C@H](C)[C@H](NC(=O)[C@H](Cc1ccccc1)NC(=O)[C@H](CCC(=O)O)NC(=O)[C@H](CCCCN)NC(=O)[C@H](CCC(N)=O)NC(=O)[C@H](Cc1c[nH]cn1)NC(=O)[C@@H](NC(=O)[C@@H]1CCC(=O)NCCCC[C@H](NC(=O)[C@H](CO)NC(=O)[C@H](Cc2ccc(O)cc2)NC(=O)[C@H](CC(=O)O)NC(=O)[C@H](CO)NC(=O)[C@@H](NC(=O)[C@H](Cc2ccccc2)NC(=O)[C@@H](NC(=O)CNC(=O)[C@H](CCC(N)=O)NC(=O)[C@H](CO)NC(=O)[C@@H](N)Cc2c[nH]cn2)[C@@H](C)O)[C@@H](C)O)C(=O)N[C@@H](Cc2ccc(O)cc2)C(=O)N[C@@H](CC(C)C)C(=O)N[C@@H](CC(=O)O)C(=O)N1)[C@@H](C)CC)C(=O)N[C@@H](C)C(=O)N[C@@H](Cc1c[nH]c2ccccc12)C(=O)N[C@@H](CC(C)C)C(=O)N[C@@H](CCSC)C(=O)N[C@@H](CC(N)=O)C(=O)N[C@H](C(N)=O)[C@@H](C)O [mt-63]	EC50 (glucagon receptor): 3.15 nM
50.00	13.33	CC[C@H](C)[C@H](NC(=O)[C@H](Cc1ccccc1)NC(=O)[C@H](CCC(=O)O)NC(=O)[C@@H]1CCCCNC(=O)CC[C@H](NC(=O)[C@H](CC(=O)O)NC(=O)[C@H](CC(C)C)NC(=O)[C@H](Cc2ccc(O)cc2)NC(=O)[C@@H](NC(=O)[C@H](CO)NC(=O)[C@H](Cc2ccc(O)cc2)NC(=O)[C@H](CC(=O)O)NC(=O)[C@H](CO)NC(=O)[C@@H](NC(=O)[C@H](Cc2ccccc2)NC(=O)[C@@H](NC(=O)CNC(=O)[C@H](CCC(N)=O)NC(=O)[C@H](CO)NC(=O)[C@@H](N)Cc2c[nH]cn2)[C@@H](C)O)[C@@H](C)O)[C@@H](C)CC)C(=O)N[C@@H]([C@@H](C)CC)C(=O)N[C@@H](Cc2c[nH]cn2)C(=O)N[C@@H](CCC(N)=O)C(=O)N1)C(=O)N[C@@H](CS)C(=O)N[C@@H](Cc1c[nH]c2ccccc12)C(=O)N[C@@H](CC(C)C)C(=O)N[C@@H](CC(C)C)C(=O)N[C@@H](C)C(=O)N[C@@H](CCC(N)=O)C(N)=O [mt-84] (H-HSQGTFTSDYSIYLDEIHQKEFICWLLAQ-NH2; lactam 16-20; N-terminus assumed)	EC50 (GLP-1 receptor): 0.16 nM; EC50 (glucagon receptor): 0.45 nM
150.00	14.33	CC[C@H](C)[C@H](NC(=O)[C@H](Cc1ccccc1)NC(=O)[C@@H]1CCC(=O)NCCCC[C@@H]2NC(=O)[C@@H](NC(=O)[C@H](CC(=O)O)NC(=O)[C@H](CC(C)C)NC(=O)[C@H](Cc3ccc(O)cc3)NC(=O)[C@@H](NC(=O)[C@H](CO)NC(=O)[C@H](Cc3ccc(O)cc3)NC(=O)[C@H](CC(=O)O)NC(=O)[C@H](CO)NC(=O)[C@@H](NC(=O)[C@H](Cc3ccccc3)NC(=O)[C@@H](NC(=O)CNC(=O)[C@H](CCC(N)=O)NC(=O)[C@H](CO)NC(=O)[C@@H](N)Cc3c[nH]cn3)[C@@H](C)O)[C@@H](C)O)[C@@H](C)CC)CCC(=O)NCCCC[C@H](NC(=O)[C@H](CCC(N)=O)NC(=O)[C@H](Cc3c[nH]cn3)NC2=O)C(=O)N1)C(=O)N[C@@H](C)C(=O)N[C@@H](Cc1c[nH]c2ccccc12)C(=O)N[C@@H](CC(C)C)C(=O)N[C@@H](CC(C)C)C(=O)N[C@@H](C)C(=O)N[C@@H](CCC(N)=O)C(N)=O [mt-93]	EC50 (GLP-1 receptor): 0.04 nM
0.04	0.07	CC[C@H](C)[C@H](NC(=O)[C@H](CO)NC(=O)[C@H](Cc1ccc(O)cc1)NC(=O)[C@H](CC(=O)O)NC(=O)[C@H](CO)NC(=O)[C@@H](NC(=O)[C@@H](O)Cc1ccccc1)[C@@H](C)CC)C(=O)N[C@@H](C)C(=O)N[C@@H](CCSC)C(=O)N[C@@H](CC(=O)O)C(=O)N[C@H]1CCC(=O)NCCCC[C@@H](C(=O)N[C@@H](CC(=O)O)C(=O)N[C@@H](Cc2ccccc2)C(=O)N[C@H](C(=O)N[C@@H](CC(N)=O)C(=O)N[C@@H](Cc2c[nH]c3ccccc23)C(=O)N[C@@H](CC(C)C)C(=O)N[C@@H](CC(C)C)C(=O)N[C@@H](C)C(=O)N[C@@H](CCC(N)=O)C(N)=O)C(C)C)NC(=O)[C@H](CCC(N)=O)NC(=O)[C@H](Cc2c[nH]cn2)NC(=O)[C@H]([C@@H](C)CC)NC1=O [mt-113] (H-[PhLac]ISDYSIAMDEIHQKDFVNWLLAQ-NH2; lactam 11-15)	
0.05	0.28	CC[C@H](C)[C@@H]1NC(=O)[C@@H](NC(=O)[C@H](CC(=O)O)NC(=O)[C@H](CC(C)C)NC(=O)[C@H](Cc2ccc(O)cc2)NC(=O)[C@H](CCCCN)NC(=O)[C@H](CO)NC(=O)[C@H](Cc2ccc(O)cc2)NC(=O)[C@H](CC(=O)O)NC(=O)[C@H](CO)NC(=O)[C@@H](NC(=O)[C@@H](O)Cc2ccccc2)[C@@H](C)O)CCC(=O)NCCCC[C@@H](C(=O)N[C@@H](CC(=O)O)C(=O)N[C@@H](Cc2ccccc2)C(=O)N[C@H](C(=O)N[C@@H](CC(N)=O)C(=O)N[C@@H](Cc2c[nH]c3ccccc23)C(=O)N[C@@H](CC(C)C)C(=O)N[C@@H](CC(C)C)C(=O)N[C@@H](C)C(=O)N[C@@H](CCC(N)=O)C(N)=O)C(C)C)NC(=O)[C@H](CCC(N)=O)NC(=O)[C@H](Cc2c[nH]cn2)NC1=O [mt-114] (H-[PhLac]TSDYSKYLDEIHQKDFVNWLLAQ-NH2; lactam 11-15)	
